According to ChEMBL document CHEMBL1201862, “PubChem BioAssay data set” (2004):
The source made the active and inactive calls.

Assays:
[1] = target: T1, RNA-binding protein pos-1 (Caenorhabditis elegans, UniProt G5EF15); test: disruptors of C. elegans POS-1 RNA interaction – biochemical, fluorescence polarization, dose response (AID 1964);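 also: purified POS-1 fused to maltose binding protein made in E. coli; potency of compounds blocking POS-1 binding to fluorescent RNA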
T1 sequence (G5EF15 whole entry): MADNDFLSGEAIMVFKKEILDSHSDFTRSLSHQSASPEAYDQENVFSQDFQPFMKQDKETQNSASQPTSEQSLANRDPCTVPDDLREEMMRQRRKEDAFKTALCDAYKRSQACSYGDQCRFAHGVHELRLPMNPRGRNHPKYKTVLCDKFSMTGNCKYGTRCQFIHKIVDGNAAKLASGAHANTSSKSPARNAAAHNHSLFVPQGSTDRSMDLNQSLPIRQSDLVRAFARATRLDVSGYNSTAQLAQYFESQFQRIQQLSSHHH

[2] = target: T2, Zinc finger protein mex-5 (Caenorhabditis elegans, UniProt Q9XUB2); test: potency of MEX-5 RNA-binding blockers – biochemical, C. elegans, fluorescence polarization, dose response (AID 1960)
T2 sequence (Q9XUB2 whole entry): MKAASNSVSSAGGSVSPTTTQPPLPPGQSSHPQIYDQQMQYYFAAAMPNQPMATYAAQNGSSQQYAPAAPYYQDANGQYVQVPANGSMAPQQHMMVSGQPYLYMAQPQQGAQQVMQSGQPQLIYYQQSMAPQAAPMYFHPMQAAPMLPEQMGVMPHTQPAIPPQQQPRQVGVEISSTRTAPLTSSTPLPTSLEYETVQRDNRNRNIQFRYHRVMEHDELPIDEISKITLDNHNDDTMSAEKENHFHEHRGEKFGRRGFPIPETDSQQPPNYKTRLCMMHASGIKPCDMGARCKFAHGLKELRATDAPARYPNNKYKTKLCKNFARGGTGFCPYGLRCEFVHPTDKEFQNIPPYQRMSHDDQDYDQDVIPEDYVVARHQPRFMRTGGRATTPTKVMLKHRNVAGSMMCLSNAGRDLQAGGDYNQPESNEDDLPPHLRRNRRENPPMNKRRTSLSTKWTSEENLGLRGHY

[3] = target: T3, Sentrin-specific protease 1 (Homo sapiens, UniProt Q9P0U3); test: Dose response confirmation of small molecule inhibitors of the catalytic domain of the SUMO protease, SENP1 in a FRET assay.; type: functional; conditions: read-out: IC50_Mean
T3 sequence (Q9P0U3 whole entry): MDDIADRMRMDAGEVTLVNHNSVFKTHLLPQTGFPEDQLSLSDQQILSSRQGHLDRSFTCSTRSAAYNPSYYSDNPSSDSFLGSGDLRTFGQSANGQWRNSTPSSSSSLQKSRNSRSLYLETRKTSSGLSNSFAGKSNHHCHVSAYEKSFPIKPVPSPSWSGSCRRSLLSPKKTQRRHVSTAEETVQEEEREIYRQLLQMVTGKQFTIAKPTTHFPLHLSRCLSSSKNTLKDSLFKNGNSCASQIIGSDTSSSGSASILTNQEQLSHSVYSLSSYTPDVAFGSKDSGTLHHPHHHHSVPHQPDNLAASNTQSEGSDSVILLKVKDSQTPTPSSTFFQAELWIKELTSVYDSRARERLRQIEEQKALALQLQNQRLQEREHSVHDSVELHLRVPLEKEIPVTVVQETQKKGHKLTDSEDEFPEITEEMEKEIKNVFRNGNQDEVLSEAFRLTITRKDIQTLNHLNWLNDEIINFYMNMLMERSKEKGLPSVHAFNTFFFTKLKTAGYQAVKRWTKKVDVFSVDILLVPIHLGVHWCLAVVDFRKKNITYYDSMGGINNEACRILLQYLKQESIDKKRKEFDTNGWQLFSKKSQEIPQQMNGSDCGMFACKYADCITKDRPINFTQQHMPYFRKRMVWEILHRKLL

[4] = target: T4, fMet-Leu-Phe receptor (Homo sapiens, UniProt P21462); test: formyl peptide receptor binders – dose response (AID 519); type: functional
T4 sequence (P21462 whole entry): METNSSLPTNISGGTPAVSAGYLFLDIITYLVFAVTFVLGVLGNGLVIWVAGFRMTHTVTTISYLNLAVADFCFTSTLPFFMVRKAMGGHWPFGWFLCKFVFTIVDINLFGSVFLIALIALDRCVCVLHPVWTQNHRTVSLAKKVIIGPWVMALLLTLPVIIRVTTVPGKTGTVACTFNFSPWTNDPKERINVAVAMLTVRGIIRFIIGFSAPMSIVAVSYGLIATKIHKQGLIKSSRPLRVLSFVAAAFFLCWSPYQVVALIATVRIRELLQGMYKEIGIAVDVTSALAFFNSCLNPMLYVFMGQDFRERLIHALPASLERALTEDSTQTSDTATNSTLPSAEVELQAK

[5] = target: T5, Oxysterols receptor LXR-beta (Homo sapiens, UniProt P55055); type: functional, cell-based;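 also: agonist activity at LXR measured by a cell-based luminescence readout across a dose range, run as a counterscreen for daf-12 agonists; HEK293 cells with Gal4-LXR fusion and GAL4-driven luciferase reporter; potency for activation of Gal4-LXR reporter so compounds are agonists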
T5 sequence (P55055 whole entry): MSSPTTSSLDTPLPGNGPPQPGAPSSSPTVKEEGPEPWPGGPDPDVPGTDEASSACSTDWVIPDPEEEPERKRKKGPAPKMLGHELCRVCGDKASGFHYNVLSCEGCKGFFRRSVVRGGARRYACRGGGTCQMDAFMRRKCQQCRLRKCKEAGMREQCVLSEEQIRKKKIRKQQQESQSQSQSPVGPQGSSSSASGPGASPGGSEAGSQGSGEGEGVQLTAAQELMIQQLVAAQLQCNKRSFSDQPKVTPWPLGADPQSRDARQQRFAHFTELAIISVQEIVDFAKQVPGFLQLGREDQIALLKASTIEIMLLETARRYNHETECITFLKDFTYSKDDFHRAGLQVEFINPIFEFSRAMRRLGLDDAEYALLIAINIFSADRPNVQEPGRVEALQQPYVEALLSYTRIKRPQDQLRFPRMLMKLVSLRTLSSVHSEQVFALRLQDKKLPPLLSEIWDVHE

[6] = target: Protein Wnt-3a (Mus musculus, UniProt P27467); test: antagonism of Wnt3a pathway luciferase reporter – Wnt-LIGHT cells, luminescence, selectivity assay for Gli-SUFU antagonist project, dose response (AID 651570); type: functional; conditions: read-out: IC50_Mean;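 also: Wnt-LIGHT reporter cells stimulated with conditioned medium from Wnt3a-producing cells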
[7] = target: T6, Hepatocyte nuclear factor 4-alpha (Homo sapiens, UniProt P41235); type: functional, cell-based;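 also: biochemical luminescence-based dose-response counterscreen measuring inhibition of HNF4 dimerization, run alongside a screen for blockers of ABHD5–perilipin-5 interaction; split luciferase complementation of HNF4 fusion proteins in cell lysate measuring dimerization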
T6 sequence (P41235 whole entry): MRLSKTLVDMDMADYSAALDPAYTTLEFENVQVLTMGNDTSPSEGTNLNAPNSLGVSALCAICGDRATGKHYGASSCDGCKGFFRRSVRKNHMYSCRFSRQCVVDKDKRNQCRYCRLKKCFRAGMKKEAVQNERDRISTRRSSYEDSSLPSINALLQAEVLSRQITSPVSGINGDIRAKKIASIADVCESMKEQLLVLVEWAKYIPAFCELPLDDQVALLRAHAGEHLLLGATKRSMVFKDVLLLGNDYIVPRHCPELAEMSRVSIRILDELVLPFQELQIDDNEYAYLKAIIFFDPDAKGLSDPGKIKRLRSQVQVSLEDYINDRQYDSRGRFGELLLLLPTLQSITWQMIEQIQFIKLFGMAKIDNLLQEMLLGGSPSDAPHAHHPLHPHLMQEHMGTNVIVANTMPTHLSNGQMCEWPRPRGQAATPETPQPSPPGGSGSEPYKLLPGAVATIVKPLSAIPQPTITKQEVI

[8] = target: Beta-galactosidase (Escherichia coli, UniProt Q8VNN2); test: Dose response counterscreen for EBI2 assay utilizing the enzyme, b-galactosidase.; type: functional
[9] = luciferase reporter signal suppression in cells – H4 neuroglioma cells, luminescence, dose response (AID 1990); type: functional, cell-based
[10] = general cell-killing toxicity readout – plate reader, dry powder samples, cytotoxicity control for PAX8 inhibitor project, dose response (AID 743021); type: functional, cell-based
[11] = target: Paired box protein Pax-8 (Homo sapiens, UniProt Q06710); test: PAX8 transcriptional activity inhibition in RMG-I – RMG-I cells, luciferase, cherry-pick, dose response (AID 687027); type: functional, cell-based;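 also: luciferase reporter driven by Pax8 target thyroperoxidase promoter measured by SteadyGlo luminescence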
[12] = target: T7, Ubiquitin-conjugating enzyme E2 N (Homo sapiens, UniProt P61088); type: functional;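 also: Dose-response confirmation in a TR-FRET assay detecting UBC13-driven polyubiquitin chain formation, inhibition measured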
T7 sequence (P61088 whole entry): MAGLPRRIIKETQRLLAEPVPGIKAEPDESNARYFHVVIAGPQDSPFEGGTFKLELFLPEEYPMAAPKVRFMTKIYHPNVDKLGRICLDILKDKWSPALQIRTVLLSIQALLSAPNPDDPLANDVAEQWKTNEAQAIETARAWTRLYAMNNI

[13] = alpha-synuclein stem-loop luciferase translation blockers – H4 neuroglioma cells, luminescence, confirmation (AID 1988); type: functional, cell-based
[14] = Luminescence Cell-Based Dose Response HTS to Identify Inhibitors of 5'UTR Stem-Loop Driven Prion Protein mRNA Translation in H4 Neuroglioblastoma Cells. [Related pubchem assays: 1827 (Project Summary), 1813 (Primary HTS)]; type: functional
[15] = target: Disintegrin and metalloproteinase domain-containing protein 17 (Homo sapiens, UniProt P78536); test: inhibition of ADAM17 substrate cleavage – biochemical, quenched FRET substrate, counter-screen for ADAM10 exosite inhibitor project, dose response (AID 743253)
[16] = activation of miR-122 Renilla sensor silencing – cell-based, Huh7 psiCHECK-miR122, Renilla luciferase, cherry-picked, dose response (AID 651956); type: functional;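 also: huh7 hepatoma cells stably carrying a psiCHECK-2 miR-122 sensor plasmid; renilla luciferase signal reporting endogenous miR-122 activity after 48 h compound exposure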
[17] = blockers of bursicon-stimulated LGR2 cAMP reporter – cell-based, HEK293, CRE-luciferase reporter, cherry pick, set 2, dose response (AID 743343); type: functional;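 also: transfected cells were stimulated with diluted bursicon conditioned medium after compound addition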
[18] = viability loss in HEK293 cells – cell-based, plate reader, cherry-picked samples, cytotoxicity control, dose response (AID 743446); type: functional
[19] = A549 cell cytotoxicity, dose response, cytotoxicity control, plate reader, cherry-pick, antagonist series (AID 743412); type: functional, cell-based
[20] = blockade of melanocortin 4 receptor signaling – cell-based, plate reader, cherry pick, counter-screen for LGR2 antagonist project, dose response (AID 743444); type: functional;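 also: transfected HEK 293 cells stimulated with alpha-MSH peptide; potency of inhibitors of the alpha-MSH evoked signal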
[21] = target: T8, Long-chain-fatty-acid--AMP ligase FadD28 (Mycobacterium tuberculosis, UniProt P9WQ59); test: Fluorescence polarization aasay to screen for inhibitors that compete for the binding of FadD28 to a bisubstrate Measured in Biochemical System Using Plate Reader - 2147-01_Inhibitor_Dose_CherryPick_Activity.; type: functional, Mycobacterium tuberculosis H37Rv
T8 sequence (P9WQ59 whole entry): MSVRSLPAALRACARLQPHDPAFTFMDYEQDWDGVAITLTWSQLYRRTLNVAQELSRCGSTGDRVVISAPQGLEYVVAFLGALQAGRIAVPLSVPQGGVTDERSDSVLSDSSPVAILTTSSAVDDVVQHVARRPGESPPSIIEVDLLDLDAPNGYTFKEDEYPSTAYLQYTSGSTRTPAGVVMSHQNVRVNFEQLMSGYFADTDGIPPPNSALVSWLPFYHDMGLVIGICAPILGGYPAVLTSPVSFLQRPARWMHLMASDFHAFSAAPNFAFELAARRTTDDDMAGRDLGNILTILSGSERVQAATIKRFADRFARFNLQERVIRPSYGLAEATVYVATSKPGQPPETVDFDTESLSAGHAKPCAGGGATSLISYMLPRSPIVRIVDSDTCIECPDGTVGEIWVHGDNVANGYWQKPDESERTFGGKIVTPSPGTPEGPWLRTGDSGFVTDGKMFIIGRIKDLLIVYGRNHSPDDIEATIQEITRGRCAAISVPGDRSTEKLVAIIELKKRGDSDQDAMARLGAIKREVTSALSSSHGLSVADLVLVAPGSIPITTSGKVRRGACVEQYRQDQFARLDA

Chain of Protein Wnt-3a (P27467 whole entry, the tested form may be a part): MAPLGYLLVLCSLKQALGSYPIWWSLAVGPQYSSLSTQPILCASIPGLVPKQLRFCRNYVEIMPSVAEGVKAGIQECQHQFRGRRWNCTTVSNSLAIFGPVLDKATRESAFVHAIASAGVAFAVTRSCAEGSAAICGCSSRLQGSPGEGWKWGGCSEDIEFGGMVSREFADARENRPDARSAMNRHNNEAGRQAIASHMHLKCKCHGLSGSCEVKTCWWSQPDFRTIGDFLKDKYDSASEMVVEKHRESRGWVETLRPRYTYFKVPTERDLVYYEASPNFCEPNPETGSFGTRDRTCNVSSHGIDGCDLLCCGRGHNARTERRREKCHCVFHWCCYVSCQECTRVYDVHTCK
Chain of Disintegrin and metalloproteinase domain-containing protein 17 (P78536 whole entry, the tested form may be a part): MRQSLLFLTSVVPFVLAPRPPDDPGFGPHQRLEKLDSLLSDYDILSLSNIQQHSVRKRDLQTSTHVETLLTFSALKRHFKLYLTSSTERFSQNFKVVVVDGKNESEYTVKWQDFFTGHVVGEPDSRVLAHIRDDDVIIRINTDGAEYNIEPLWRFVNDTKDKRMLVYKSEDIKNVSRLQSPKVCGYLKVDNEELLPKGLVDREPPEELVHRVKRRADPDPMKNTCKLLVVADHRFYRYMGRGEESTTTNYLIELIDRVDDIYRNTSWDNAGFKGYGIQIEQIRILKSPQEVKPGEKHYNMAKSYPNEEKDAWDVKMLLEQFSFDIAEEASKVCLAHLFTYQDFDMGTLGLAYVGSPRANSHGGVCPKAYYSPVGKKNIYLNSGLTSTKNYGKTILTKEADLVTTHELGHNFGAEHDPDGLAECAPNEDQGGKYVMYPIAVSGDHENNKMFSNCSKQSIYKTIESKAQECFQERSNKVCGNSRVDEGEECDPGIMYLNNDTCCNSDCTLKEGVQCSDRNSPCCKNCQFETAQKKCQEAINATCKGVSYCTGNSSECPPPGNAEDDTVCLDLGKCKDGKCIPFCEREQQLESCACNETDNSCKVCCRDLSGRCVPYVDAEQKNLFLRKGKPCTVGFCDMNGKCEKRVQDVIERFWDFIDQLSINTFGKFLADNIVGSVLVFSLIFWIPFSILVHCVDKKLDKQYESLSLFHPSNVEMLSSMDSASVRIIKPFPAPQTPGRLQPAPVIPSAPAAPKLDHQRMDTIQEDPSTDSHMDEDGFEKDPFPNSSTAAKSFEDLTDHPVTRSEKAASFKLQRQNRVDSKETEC
Chain of Paired box protein Pax-8 (Q06710 whole entry): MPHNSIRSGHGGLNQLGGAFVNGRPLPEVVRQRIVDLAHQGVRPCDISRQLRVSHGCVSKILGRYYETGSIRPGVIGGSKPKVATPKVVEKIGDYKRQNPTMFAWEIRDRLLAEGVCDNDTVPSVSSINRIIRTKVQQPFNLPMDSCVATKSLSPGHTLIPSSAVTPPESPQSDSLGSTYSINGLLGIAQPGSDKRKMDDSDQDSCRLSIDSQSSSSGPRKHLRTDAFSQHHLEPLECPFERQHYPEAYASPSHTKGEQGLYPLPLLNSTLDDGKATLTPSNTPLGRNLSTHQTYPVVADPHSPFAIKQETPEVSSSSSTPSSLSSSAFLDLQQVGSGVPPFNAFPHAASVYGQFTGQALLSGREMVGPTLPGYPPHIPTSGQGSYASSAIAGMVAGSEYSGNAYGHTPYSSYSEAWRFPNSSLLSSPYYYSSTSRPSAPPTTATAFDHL
Chain of Beta-galactosidase (Q8VNN2 whole entry): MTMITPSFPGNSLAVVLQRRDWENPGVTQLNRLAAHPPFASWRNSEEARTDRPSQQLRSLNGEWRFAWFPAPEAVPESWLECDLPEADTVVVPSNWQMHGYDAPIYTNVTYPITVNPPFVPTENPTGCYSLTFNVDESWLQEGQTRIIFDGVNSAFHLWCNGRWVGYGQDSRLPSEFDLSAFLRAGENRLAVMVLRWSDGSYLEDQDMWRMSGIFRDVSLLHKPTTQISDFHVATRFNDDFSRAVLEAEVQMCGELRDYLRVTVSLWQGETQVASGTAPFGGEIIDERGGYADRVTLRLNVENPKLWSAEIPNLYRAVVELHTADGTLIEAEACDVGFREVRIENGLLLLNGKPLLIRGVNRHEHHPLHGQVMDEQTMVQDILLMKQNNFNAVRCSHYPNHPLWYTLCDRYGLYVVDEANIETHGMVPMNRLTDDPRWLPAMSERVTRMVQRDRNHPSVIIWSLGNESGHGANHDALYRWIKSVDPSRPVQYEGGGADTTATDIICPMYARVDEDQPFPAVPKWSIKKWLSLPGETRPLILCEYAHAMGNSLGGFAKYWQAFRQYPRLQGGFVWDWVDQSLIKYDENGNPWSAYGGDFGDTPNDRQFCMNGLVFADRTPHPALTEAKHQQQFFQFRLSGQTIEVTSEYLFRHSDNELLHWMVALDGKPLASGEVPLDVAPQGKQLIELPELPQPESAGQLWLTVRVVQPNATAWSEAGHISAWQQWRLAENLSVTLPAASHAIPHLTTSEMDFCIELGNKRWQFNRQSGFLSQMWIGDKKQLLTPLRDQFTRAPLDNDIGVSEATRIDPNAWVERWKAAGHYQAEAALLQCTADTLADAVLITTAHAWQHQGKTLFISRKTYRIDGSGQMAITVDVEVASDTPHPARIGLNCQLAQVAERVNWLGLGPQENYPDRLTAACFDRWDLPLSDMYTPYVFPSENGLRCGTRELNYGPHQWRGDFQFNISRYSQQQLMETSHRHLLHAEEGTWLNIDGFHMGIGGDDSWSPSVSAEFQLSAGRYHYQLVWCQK

O=C(c1ccccc1)[C@@H]1[C@@H]2C(=O)N(c3ccc(F)cc3)C(=O)[C@@H]2C2CCCN21 (some centres not stated)
EC50 [1]: 37.9 µM (active)
EC50 [2]: 40.9 µM (active)
IC50 [3]: 7.78 µM (active)

COC(=O)c1[nH]c(C)c(C(=O)C2=C(O)C(=O)N(CCN3CCOCC3)C2c2cccnc2)c1C (configuration not stated)
Ki [4]: 20.8 µM (inactive)

O=C(C1=C(O)C(=O)N(c2ncccn2)C1c1ccc(Cl)c(Cl)c1)c1ccco1 (configuration not stated)
Ki [4]: > 66.7 µM (inactive)

c1ccc(CCSc2nccn2-c2ccccc2)cc1
EC50 [5]: > 67.6 µM (inactive)

CC[n+]1ccn(C)c1P(c1ccccc1)c1ccccc1
IC50 [6]: 6.99 µM (active)

CCC(C(=O)OCCN(CC)CC)c1ccccc1 (configuration not stated)
IC50 [7]: 23.9 µM (inactive)

Cc1occc1-c1nnc(SCC(=O)NCCc2ccccc2)n1Cc1ccccc1
IC50 [8]: > 80 µM (inactive)

CCC[C@H](CN[C@@H](CNC)[C@H](C)CC)NCCc1cc(C(F)(F)F)cc(C(F)(F)F)c1
EC50 [9]: 8.3 µM (active)
AC50 [10]: 22.1 µM (active)
AC50 [11]: 9.95 µM (active)
IC50 [12]: > 20 µM (inactive)
EC50 [13]: 7.09 µM (active)
EC50 [14]: 9.67 µM (active)

COc1ccc(-c2ccc(-c3noc(-c4cccc(OC)c4)n3)c(OC)n2)cc1
IC50 [15]: > 69.5 µM (inactive)

O=C(N[C@@H]1C/C=C\C[C@@H](CC(=O)N(CCO)Cc2ccccc2)C(=O)N[C@@H](c2ccccc2)COC1=O)OCC1c2ccccc2-c2ccccc21
IC50 [6]: 12.3 µM (active)

CN(C)CCNc1ncnc2c1ncn2[C@H]1CN(Cc2cccnc2)C[C@@H](CO)O1
EC50 [5]: > 67.5 µM (inactive)

CCS(=O)(=O)Nc1ccc2c(c1)C(=O)N(C)C[C@@H](OC)[C@H](C)CN(CC1CCCC1)[C@H](C)CO2
AC50 [16]: 23.6 µM (active)

Cc1cccc(C)c1NC(=O)C(c1ccccc1)n1c(=O)c(-c2ccco2)nc2ccccc21 (configuration not stated)
IC50 [7]: 3.81 µM (active)

CC(C)(C)NC(=O)C(c1cccc2ccccc12)n1c(=O)c(-c2ccco2)nc2ccccc21 (configuration not stated)
IC50 [7]: 2.27 µM (active)

CC(=Nc1ccc(Cl)cc1N)c1c(O)cc(C)oc1=O
EC50 [5]: > 67.6 µM (inactive)

Cc1cccc(-c2ccc([C@H]3[C@@H](CO)N4CCCCN(C(=O)c5ccncc5)C[C@@H]34)cc2)c1
AC50 [17]: 8.82 µM (active)
AC50 [18]: > 52 µM (inactive)
AC50 [19]: > 52 µM (inactive)
AC50 [20]: 9.6 µM (active)

O=C(N/N=C/c1c[nH]c2ccccc12)c1cc(Cl)ccc1O
AC50 [21]: 9.8 µM (active)
